Reference: EPA's ToxValDB 9.5

Test system: Rattus norvegicus
[1] = developmental, oral, gavage, F, Wistar, generation: F1, F1: novel object test (time exploring both objects, trial 2) + F1: novel object test (time exploring familiar object, trial 2)
[2] = developmental, oral, gavage, M, Wistar, generation: F1, F1: active avoidance (shuttle box, conditioned avoidance response, 4th block) + F1: passive avoidance (avoidance latency) + F1: rotarod (…
[3] = developmental, oral, gavage, M, Wistar, generation: F1, F1: auditory startle reflex (peak latency) + F1: auditory startle reflex (pre-pulse inhibition peak latency) + F1: vocalization (number …
[4] = subchronic, duration: 3 months, oral, drinking water, M/F, Sprague-Dawley, Morris water maze (escape time, acquisition, day 1) + Morris water maze (escape time, acquisition, day 5)
[5] = subchronic, duration: 3 months, oral, drinking water, M/F, Sprague-Dawley, Morris water maze (escape time, acquisition, day 6)
[6] = subchronic, duration: 12 weeks, oral, drinking water, M, Sprague-Dawley, territorial aggression (ventral presenting posture events of stud male)
[7] = subchronic, duration: 30 days, oral, drinking water, M, Wistar, active avoidance (shuttle box, number of avoidances of conditioned shock stimulus)

[F-].[Na+] [Sodium fluoride] showed an NOEL (developmental, oral, gavage, F, Wistar, generation: F1, F1: auditory startle reflex (amplitude) + F1: auditory startle reflex (peak latency) + F1: auditory startle reflex (pre-pulse inhibition …) of 2.26 mg/kg-day, an LOEL [1] of 2.26 mg/kg-day and an NOEL [1] of 1.13 mg/kg-day. The LOEL (developmental, oral, gavage, M/F, Sprague-Dawley, generation: F1, F1: air righting + F1: Morris water maze (escape time, probe test, day 5) + F1: Morris water maze (platform crossing, probe test, day 5) + …) was 3.44 mg/kg-day, the NOEL (developmental, oral, gavage, M/F, Sprague-Dawley, generation: F1, F1: auditory startle (response to metal object sound) + F1: cliff avoidance) was 3.44 mg/kg-day and the NOEL (developmental, oral, gavage, M, Wistar, generation: F1, F1: active avoidance (shuttle box, conditioned avoidance response, 1st block) + F1: novel object test (time exploring both objects, trial 2…) was 2.26 mg/kg-day. For the same compound, the LOEL [2] was 2.26 mg/kg-day, the NOEL [2] was 1.13 mg/kg-day and the LOEL (developmental, oral, gavage, M, Wistar, generation: F1, F1: auditory startle reflex (amplitude)) was 1.13 mg/kg-day. It also gave an LOEL [3] of 2.26 mg/kg-day, an NOEL [3] of 1.13 mg/kg-day and an LOEL (developmental, oral, gavage, M, Wistar, generation: F1, F1: sexual behavior (mount/intromission frequency) + F1: sexual behavior (mount/intromission latency)) of 1.13 mg/kg-day. The LOEL (short-term, duration: 14 days, injection, intraperitoneal, M, Wistar, rotarod (endurance time)) was 9.05 mg/kg-day, the LOEL [4] was 1.36 mg/kg-day and the NOEL [4] was 0.68 mg/kg-day. For the same compound, the LOEL [5] was 3.27 mg/kg-day, the NOEL [5] was 0.33 mg/kg-day and the NOEL (subchronic, duration: 3 months, oral, drinking water, M/F, Sprague-Dawley, Morris water maze (platform crossing, probe test, day 7) + Morris water maze (time in target quadrant, probe test, day 7)) was 3.27 mg/kg-day. It also gave an LOEL (subchronic, duration: 3 months, oral, drinking water, M/F, Wistar, passive avoidance (step-down test, time to move from rubber mat to electrified bar, session 2, day 30) + passive avoidance (step-down test, …) of 5.84 mg/kg-day, an LOEL (subchronic, duration: 3 months, oral, drinking water, M, Sprague-Dawley, Morris water maze (escape time, acquisition, day 1) + Morris water maze (escape time, acquisition, day 11) + Morris water maze (escape time…) of 7.52 mg/kg-day and an NOEL (subchronic, duration: 3 months, oral, drinking water, M, Wistar, Morris water maze (entries into target quadrant, probe test, day 4) + Morris water maze (escape time, acquisition, day 2) + Morris water …) of 3.34 mg/kg-day. For the same compound, the LOEL (subchronic, duration: 3 months, oral, gavage, M/F, Sprague-Dawley, Morris water maze (escape time, acquisition day 1) + Morris water maze (escape time, acquisition, day 5)) was 9.05 mg/kg-day, the NOEL (subchronic, duration: 3 months, oral, gavage, M, Albino, open field (ambulation distance) + open field (ambulation time) + open field (immobility time) + open field, stereotypic events + open field…) was 9.05 mg/kg-day and the LOEL (subchronic, duration: 3 months, oral, gavage, M, Albino, open field (squares crossed)) was 4.52 mg/kg-day. The LOEL (subchronic, duration: 3 months, oral, gavage, M, Wistar, Y-maze (number of training runs to meet 90% learning standard, day 23) + Y-maze (number of training runs to meet 90% learning standard, day …) was 6.67 mg/kg-day, the NOEL (subchronic, duration: 12 weeks, oral, drinking water, M, Sprague-Dawley, sexual behavior (ejaculation latency) + territorial aggression (fights with stud male)) was 18.8 mg/kg-day and the LOEL (subchronic, duration: 12 weeks, oral, drinking water, M, Sprague-Dawley, sexual behavior (intromission latency) + sexual behavior (post-ejaculatory interval) + sexual behavior (time to first mount) + sexual …) was 6.27 mg/kg-day. It also gave an LOEL [6] of 18.8 mg/kg-day, an NOEL [6] of 6.27 mg/kg-day and an NOEL (subchronic, duration: 12 weeks, oral, gavage, Wistar, open field (ambulation distance, 12 wks) + open field (ambulation distance, 3 wks) + open field (ambulation events, 12 wks) + open field (…) of 2.3 mg/kg-day. For the same compound, the NOEL (subchronic, duration: 30 days, oral, drinking water, M/F, Wistar, activity cage (ambulatory events) + activity cage (head turning events) + activity cage (head turning time) + activity cage (rearing events…) was 10.4 mg/kg-day, the LOEL (subchronic, duration: 30 days, oral, drinking water, M/F, Wistar, activity cage (ambulatory time) + activity cage (rearing time) + activity cage (sitting events) + activity cage (sitting time) + activity …) was 10.4 mg/kg-day and the NOEL (subchronic, duration: 30 days, oral, drinking water, M, Wistar, T-maze (number of errors, retention phase)) was 40 mg/kg-day. The LOEL (subchronic, duration: 30 days, oral, drinking water, M, Wistar, T-maze (number of sessions to reach learning criterion)) was 40 mg/kg-day, the LOEL [7] was 4.87 mg/kg-day and the NOEL [7] was 2.33 mg/kg-day. For the same compound, the NOEL (subchronic, duration: 30 days, oral, drinking water, M, Wistar, active avoidance (shuttle box, number of escapes of conditioned shock stimulus) + active avoidance (shuttle box, number of failures to avoid…) was 4.87 mg/kg-day, the LOEL (subchronic, duration: 30 days, oral, drinking water, M, Wistar, dental fluorosis_0 degrees + dental fluorosis_1 degree + open field (squares crossed, test session)) was 2.33 mg/kg-day and the NOEL (subchronic, duration: 30 days, oral, drinking water, M, Wistar, open field (squares crossed, day 1 - minute 1) + open field (squares crossed, day 1 - minute 2) + open field (squares crossed, day 1) + open…) was 6.67 mg/kg-day. For the same compound, the NOEL (subchronic, duration: 30 days, oral, drinking water, M, Wistar, passive avoidance (exploration, number of crossings) + passive avoidance (exploration, time in small compartment)) was 14.8 mg/kg-day, the LOEL (subchronic, duration: 30 days, oral, drinking water, M, Wistar, passive avoidance (retention, number of crossings) + passive avoidance (retention, time in small compartment) + T-maze (exploratory activity…) was 14.8 mg/kg-day and the LOEL (subchronic, duration: 30 days, oral, drinking water, M, Wistar, passive avoidance (retention, time in small compartment) + T-maze (exploratory activity) + T-maze (number of correct choices) + T-maze (…) was 14.8 mg/kg-day. The “LOEL (mg% thigh bone)” value (subchronic, duration: 30 days, oral, gavage, motor activity (spontaneous) + orienting reflex) was 10.6, the LOEL (subchronic, duration: 60 days, oral, drinking water, F, Wistar, activity cage (exploratory motor activity events) + rotarod (latency to fall, 14 rpm)) was 111 mg/kg-day and the LOEL (subchronic, duration: 60 days, oral, drinking water, F, Wistar, activity cage (motor activity events) + rotarod (latency to fall, 14 rpm)) was 1.94 mg/L serum. For the same compound, the LOEL (subchronic, duration: 60 days, oral, drinking water, Wistar, passive avoidance (retention, latency)) was 1.8 mg/kg-day, the LOEL (subchronic, duration: 60 days, oral, gavage, F, Wistar, activity cage (ambulation events)) was 9.05 mg/kg-day and the NOEL (subchronic, duration: 60 days, oral, gavage, F, Wistar, rotarod (latency to fall, 14 rpm)) was 18.1 mg/kg-day.
